Here are results for 11 compounds from patent US7951815B2, “Substituted 1,4,8-triazaspiro [4,5]decan-2-one compounds” (Gruenenthal GmbH, priority 2004, dated 2011).

Experiment [1] has as its system batrachotoxin (BTX) binding site of the sodium channel. The experiment can be described thus: Affinity to the batrachotoxin (BTX) binding site of the sodium channel. Particulars: rat cerebrocortex synaptosomes, test concentration not given.
For another experiment, the target named is human μ-opioid receptor (Homo sapiens, UniProt P35372). The experiment can be described thus: Affinity to the human μ-opioid receptor ([3H]-naloxone displacement). The settings on record: for μ (Naloxone), 1 μM, % inhibition: Table II, [3H]-naloxone; for inhibition at 1 µM: read-out: μ (Naloxone), 1 μM, % inhibition.
human μ-opioid receptor, sequence (P35372 whole entry): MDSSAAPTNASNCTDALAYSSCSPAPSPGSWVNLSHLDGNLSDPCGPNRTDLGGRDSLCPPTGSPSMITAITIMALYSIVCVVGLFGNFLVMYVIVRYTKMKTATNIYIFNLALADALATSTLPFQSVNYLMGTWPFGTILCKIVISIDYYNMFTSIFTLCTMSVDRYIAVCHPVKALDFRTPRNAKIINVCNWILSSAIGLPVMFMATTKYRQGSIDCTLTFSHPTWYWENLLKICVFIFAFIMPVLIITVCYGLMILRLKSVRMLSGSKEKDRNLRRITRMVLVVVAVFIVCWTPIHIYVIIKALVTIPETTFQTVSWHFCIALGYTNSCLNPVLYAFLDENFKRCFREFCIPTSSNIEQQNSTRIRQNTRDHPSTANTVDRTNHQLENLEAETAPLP
Another experiment deals with T1, 5-HT transporter (Rattus norvegicus, UniProt P31652).
T1 construct: synaptosomes of rat brain areas are freshly isolated; from tissue; host or cells: rat brain synaptosomes (P2 fraction) from marrow and pons
T1 sequence (P31652 whole entry): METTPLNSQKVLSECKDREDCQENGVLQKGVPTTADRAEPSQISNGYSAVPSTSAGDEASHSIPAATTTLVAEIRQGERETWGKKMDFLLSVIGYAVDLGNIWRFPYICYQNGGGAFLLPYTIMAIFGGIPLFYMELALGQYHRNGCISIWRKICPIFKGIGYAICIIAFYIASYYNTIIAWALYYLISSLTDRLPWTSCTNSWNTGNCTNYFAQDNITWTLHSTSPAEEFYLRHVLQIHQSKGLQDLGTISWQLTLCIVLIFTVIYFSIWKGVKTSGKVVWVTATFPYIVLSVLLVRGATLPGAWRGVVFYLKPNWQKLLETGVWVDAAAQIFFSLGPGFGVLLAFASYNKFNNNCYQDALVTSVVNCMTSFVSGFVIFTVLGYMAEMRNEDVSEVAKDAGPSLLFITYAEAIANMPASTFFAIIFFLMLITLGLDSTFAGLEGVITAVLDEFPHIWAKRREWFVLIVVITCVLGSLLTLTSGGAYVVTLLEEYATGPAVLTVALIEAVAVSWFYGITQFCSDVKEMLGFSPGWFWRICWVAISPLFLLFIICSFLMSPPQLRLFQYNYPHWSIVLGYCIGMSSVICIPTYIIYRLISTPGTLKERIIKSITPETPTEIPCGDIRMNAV
The experiment can be described thus: Inhibition of 5-HT uptake in rat brain synaptosomes. Particulars: rat, 1 μM; for inhibition at 1 µM: read-out: Uptake 5-HT, % inhibition. The format is biochemical.

A further experiment concerns male NMRI mice. The experiment in a line: Analgesic test using the phenylquinone-induced writhing test on mice. Type of experiment: in vivo. The settings on record: 10 mg/kg intravenous. As for the experimental part: The analysis of analgesic activity is carried out using the phenylquinone-induced writhing assay in mice, modified as described in the article by I. C. Hendershot and J. Forsaith ((1959) in J. Pharmacol. Exp. Ther. 125, 237-240).
For the present purpose, male NMRI mice are used having a weight of from 25 to 30 g. Groups of 10 animals per substance dose receive, 10 minutes after an intravenous dose of test substances, an intraperitoneal administration of 0.3 ml/mouse of a 0.02% strength aqueous solution of phenylquinone (phenylbenzoquinone, obtainable from Sigma, Deisenhofen; solution produced with the addition of 5% of ethanol and storage in a water bath at 45° C.). The animals are placed individually in observation cages. Using a pushbutton counter, the number of pain-induced stretching movements (so-called writhing reactions=straightening of the body accompanied by stretching of the rear extremities) was counted over a period of from 5 to 20 minutes following the administration of phenylquinone. The control is provided by animals receiving only physiological saline. All substances are tested using the standard dosage of 10 mg/kg.
Background: Writhing tests count abdominal constrictions after an irritant is injected.

The next experiment has as its system NA transporter. The experiment can be described thus: Inhibition of noradrenaline uptake in rat brain synaptosomes. The format is biochemical. Particulars: Table III.

Each structure is given as a SMILES string. Values joined by “and” are separate entries in the source; they are usually repeats but may differ in a detail not shown here. Equal values may be shown once. Read-outs that look alike come from different tables or passages of the source.

Method for human μ-opioid receptor: The receptor affinity to the human μ-opioid receptor is determined in a homogeneous batch in microtiter plates. For this purpose, dilution series of the substances to be tested are incubated at room temperature for 90 minutes in a total volume of 250 μL with a receptor membrane preparation (15-40 μg of protein/250 μL of incubation batch) of CHO-K1 cells which express the human μ-opioid receptor (RB-HOM receptor membrane preparation supplied by NEN, Zaventem, Belgium) in the presence of 1 nmol/L of the radioactive ligand [^3H]-naloxone (NET 719, supplied by NEN, Zaventem, Belgium), and of 1 mg of WGA-SPA beads (wheat germ agglutinin SPA beads supplied by Amersham/Pharmacia, Freiburg, Germany). As incubation buffer, 50 mmol/L of tris HCl supplemented with 0.05% (weight/volume) of sodium azide and with 0.06% (weight/volume) of bovine serum albumin is used. For determination of the nonspecific binding, 25 μmol/L of naloxone are added. On completion of the ninety-minute incubation time, the microtiter plates are centrifuged for 20 minutes at 1000 g and the radioactivity is measured in a β-counter (Microbeta-Trilux, supplied by PerkinElmer Wallac, Freiburg, Germany).
Based on the percentage displacement produced by different concentrations of the test substances, IC50 inhibitory concentrations are calculated which cause a 50 percent displacement of the radioactive ligand. As a result of recalculation using the Cheng-Prusoff relationship, the Ki values for the test substances can be obtained, as described in the publication of Y. Cheng, W. H. Prusoff, 1973, Biochem. Pharmacol., 22, pages 3099-3108.

For `Cl.O=C1NC2(CCN(C(=O)c3ccc(Cl)cc3)CC2)N[C@H]1Cc1ccccc1` (racemic) [Example 10, 3-(S,R)-Benzyl-8-(4-chlorobenzoyl)-1,4,8-triazaspiro[4,5]decan-2-one hydrochloride], the BTX inhibition in experiment [1] (Table II) came to 53. For the same compound, the “μ (Naloxone), 1 μM, % inhibition” value on human μ-opioid receptor came to 94%.
For `Cl.O=C(c1ccc(Cl)cc1)N1CCC2(CC1)N[C@@H](Cc1ccccc1)C(=O)N2Cc1ccccc1` (racemic) [Example 29, 1,3-(S,R)-dibenzyl-8-(4-chlorobenzoyl)-1,4,8-triazaspiro[4,5]decan-2-one hydrochloride], at 5-HT transporter (Table II, hydrochloride), the “Uptake 5-HT, rat, 1 μM, % inhibition” value is 80% and 45%. Further, the BTX inhibition in experiment [1] (Table II, hydrochloride) was 65 and 60. Further, the “μ (Naloxone), 1 μM, % inhibition” value on human μ-opioid receptor was found to be 38%.
Turning to `CCC(CC)C(=O)N1CCC2(CC1)N[C@@H](Cc1ccccc1)C(=O)N2Cc1ccc(F)cc1.Cl` (racemic) [Example 31, 3-(S,R)-benzyl-8-(2-ethylbutyryl)-1-(4-fluorobenzyl)-1,4,8-triazaspiro[4,5]decan-2-one hydrochloride], the “% Inhibition of the writhing reaction (Dosage in mg/kg intravenous)” value (“% Inhibition of the writhing reaction” below) in the experiment with male NMRI mice is 36 (10) %. For the same compound, the “Uptake 5-HT, rat, 1 μM, % inhibition” value at 5-HT transporter (Table II) is reported as 34%. The same compound gave a BTX inhibition in experiment [1] (Table II) of 61.
As for `CCC(CC)C(=O)N1CCC2(CC1)NC(=O)[C@H](Cc1ccccc1)N2.Cl` [Example 2, 3-(S)-Benzyl-8-(2-ethylbutyryl)-1,4,8-triazaspiro[4,5]decan-2-one hydrochloride], the “% Inhibition of the writhing reaction” value with male NMRI mice is 51 (10) %.
As to `CCC(CC)C(=O)N1CCC2(CC1)N[C@@H](Cc1ccccc1)C(=O)N2Cc1ccccc1.Cl` [Example 25, 1,3-(S)-dibenzyl-8-(2-ethylbutyryl)-1,4,8-triazaspiro[4,5]decan-2-one hydrochloride], in the experiment with male NMRI mice, the “% Inhibition of the writhing reaction” value was 42 (10) %. For the same compound, the inhibition at 1 µM on 5-HT transporter (Table II) and on human μ-opioid receptor was 66% in each case. Further, in experiment [1] (Table II), the BTX inhibition is recorded as 47.
On to `Cl.O=C(c1ccc(C(F)(F)F)c(F)c1)N1CCC2(CC1)N[C@@H](Cc1ccccc1)C(=O)N2Cc1ccccc1` [Example 53, 1,3-(S)-dibenzyl-8-(3-fluoro-4-trifluoromethylbenzoyl)-1,4,8-triazaspiro[4,5]decan-2-one hydrochloride], for which the “% Inhibition of the writhing reaction” value in the experiment with male NMRI mice is 30 (10) %. The compound also came in with a BTX inhibition in experiment [1] (Table II) of 48.
On the same counts, the results for `Cl.O=C(COc1ccc(Cl)cc1)N1CCC2(CC1)N[C@@H](Cc1ccccc1)C(=O)N2Cc1ccccc1` [Example 55, 1,3-(S)-dibenzyl-8-[2-(4-chlorophenoxy)acetyl]-1,4,8-triazaspiro[4,5]decan-2-one hydrochloride] are 45 (10) % and 64.
Consider `Cl.O=C(COc1ccccc1)N1CCC2(CC1)N[C@@H](Cc1ccccc1)C(=O)N2Cc1ccccc1` [Example 57, 1,3-(S)-dibenzyl-8-(2-phenoxyacetyl)-1,4,8-triazaspiro[4,5]decan-2-one hydrochloride], for which the inhibition at 1 µM on 5-HT transporter (Table II) turned out to be 72%; on human μ-opioid receptor it was 60%. The BTX inhibition in experiment [1] (Table II) turned out to be 44.
With `CSCCC1NC2(CCN(C(=O)c3cccnc3Oc3ccccc3)CC2)N(Cc2ccccc2[N+](=O)[O-])C1=O` (centres unmarked) [Example 298, 3-(2-Methylsulfanylethyl)-1-(2-nitrobenzyl)-8-(2-phenoxypyridin-3-carbonyl)-1,4,8-triazaspiro[4,5]decan-2-one], the inhibition at 1 µM on 5-HT transporter (Table III) came out at 34%. Besides, the “Uptake (NA), rat, 10 μM, % inhibition” value in the experiment with NA transporter is 30%. The compound further returned a BTX inhibition in experiment [1] (Table III) of 48.
Take `O=C(c1ccc2nonc2c1)N1CCC2(CC1)NCC(=O)N2Cc1ccccc1F` [Example 304, 8-(Benzo[1,2,5]oxadiazole-5-carbonyl)-1-(2-fluorobenzyl)-1,4,8-triazaspiro[4,5]decan-2-one]: the inhibition at 1 µM at 5-HT transporter (Table III) stood at 34%. The “Uptake (NA), rat, 10 μM, % inhibition” value in the experiment with NA transporter is on record as 37%. The BTX inhibition in experiment [1] (Table III) is listed as 33.
For `CCOC(=O)C(C)(C)C(=O)N1CCC2(CC1)NC(CCSC)C(=O)N2Cc1ccccc1[N+](=O)[O-]` (centres unmarked) [Example 331, Ethyl 1,1-dimethyl-2-[3-(2-methylsulfanylethyl)-1-(2-nitrobenzyl)-2-oxo-1,4,8-triazaspiro[4,5]dec-8-yl]-2-oxo-acetate], on 5-HT transporter (Table III), the “Uptake 5-HT, rat, 1 μM, % inhibition” value is on record as 58%. The “Uptake (NA), rat, 10 μM, % inhibition” value in the experiment on NA transporter turned out to be 38%. Further, the BTX inhibition in experiment [1] (Table III) was 46.

As usually defined, the inhibition is the share of the control response that was lost under treatment.
